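Method: 48-hour compound exposure of cells in 96-well plates, five concentrations, linear interpolation of endpoints. TGI marks complete inhibition of growth.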
Experiments:
Assay in all cases: NCI-60 cell line screen, 48 h
U251 CNS = system: U251 CNS
A498 renal = system: A498 renal
UO-31 renal = system: UO-31 renal
HCT-15 colon = system: HCT-15 colon
SN12C renal = system: SN12C renal
SK-MEL-28 melanoma = system: SK-MEL-28 melanoma
TK-10 renal = system: TK-10 renal
SF-295 CNS = system: SF-295 CNS
MALME-3M melanoma = system: MALME-3M melanoma
MDA-MB-435 = system: MDA-MB-435
NCI-H226 lung = system: NCI-H226 lung
COLO 205 colon = system: COLO 205 colon
SNB-19 CNS = system: SNB-19 CNS
HCT-116 colon = system: HCT-116 colon
UACC-257 melanoma = system: UACC-257 melanoma
MOLT-4 leukemia = system: MOLT-4 leukemia
SF-268 CNS = system: SF-268 CNS
MDA-N = system: MDA-N
HOP-62 NSCLC = system: HOP-62 NSCLC
SK-OV-3 ovarian = system: SK-OV-3 ovarian
T-47D breast = system: T-47D breast
HL-60(TB) leukemia = system: HL-60(TB) leukemia
UACC-62 melanoma = system: UACC-62 melanoma
NCI/ADR-RES ovarian = system: NCI/ADR-RES ovarian
OVCAR-5 ovarian = system: OVCAR-5 ovarian
786-0 renal = system: 786-0 renal
KM12 colon = system: KM12 colon
HCC-2998 colon = system: HCC-2998 colon
CAKI-1 renal = system: CAKI-1 renal
MCF7 breast = system: MCF7 breast
NCI-H23 lung = system: NCI-H23 lung
SK-MEL-2 melanoma = system: SK-MEL-2 melanoma
NCI-H522 lung = system: NCI-H522 lung
IGROV1 ovarian = system: IGROV1 ovarian
SK-MEL-5 melanoma = system: SK-MEL-5 melanoma
NCI-H460 lung = system: NCI-H460 lung
SNB-75 CNS = system: SNB-75 CNS
HT29 colon = system: HT29 colon
OVCAR-8 ovarian = system: OVCAR-8 ovarian
CCRF-CEM leukemia = system: CCRF-CEM leukemia
MDA-MB-231 breast = system: MDA-MB-231 breast
A549 NSCLC = system: A549 NSCLC
SW-620 colon = system: SW-620 colon
M14 melanoma = system: M14 melanoma
PC-3 prostate = system: PC-3 prostate
ACHN renal = system: ACHN renal
BT-549 breast = system: BT-549 breast
HS 578T breast = system: HS 578T breast
OVCAR-3 ovarian = system: OVCAR-3 ovarian
EKVX NSCLC = system: EKVX NSCLC
SR leukemia = system: SR leukemia
HOP-92 NSCLC = system: HOP-92 NSCLC
SF-539 CNS = system: SF-539 CNS
OVCAR-4 ovarian = system: OVCAR-4 ovarian
K-562 leukemia = system: K-562 leukemia
RPMI-8226 leukemia = system: RPMI-8226 leukemia
LOX IMVI melanoma = system: LOX IMVI melanoma
DU-145 prostate = system: DU-145 prostate

CN(C)CCNC(=O)c1cccc(NC(=O)c2ccccc2)c1[N+](=O)[O-]
TGI (U251 CNS): > 100 µM
TGI (A498 renal): > 100 µM
TGI (UO-31 renal): > 100 µM
TGI (HCT-15 colon): > 100 µM
TGI (SN12C renal): > 100 µM
TGI (SK-MEL-28 melanoma): > 100 µM
TGI (TK-10 renal): > 100 µM
TGI (SF-295 CNS): > 100 µM
TGI (MALME-3M melanoma): 27.3 µM
TGI (MDA-MB-435): > 100 µM
TGI (NCI-H226 lung): > 100 µM
TGI (COLO 205 colon): > 100 µM
TGI (SNB-19 CNS): > 100 µM
TGI (HCT-116 colon): > 100 µM
TGI (UACC-257 melanoma): > 100 µM
TGI (MOLT-4 leukemia): > 100 µM
TGI (SF-268 CNS): > 100 µM
TGI (MDA-N): > 100 µM
TGI (HOP-62 NSCLC): > 100 µM
TGI (SK-OV-3 ovarian): > 100 µM
TGI (T-47D breast): > 100 µM
TGI (HL-60(TB) leukemia): > 100 µM
TGI (UACC-62 melanoma): > 100 µM
TGI (NCI/ADR-RES ovarian): > 100 µM
TGI (OVCAR-5 ovarian): > 100 µM
TGI (786-0 renal): > 100 µM
TGI (KM12 colon): > 100 µM
TGI (HCC-2998 colon): > 100 µM
TGI (CAKI-1 renal): > 100 µM
TGI (MCF7 breast): > 100 µM
TGI (NCI-H23 lung): > 100 µM
TGI (SK-MEL-2 melanoma): > 100 µM
TGI (NCI-H522 lung): > 100 µM
TGI (IGROV1 ovarian): > 100 µM
TGI (SK-MEL-5 melanoma): > 100 µM
TGI (NCI-H460 lung): > 100 µM
TGI (SNB-75 CNS): > 100 µM
TGI (HT29 colon): > 100 µM
TGI (OVCAR-8 ovarian): > 100 µM
TGI (CCRF-CEM leukemia): > 100 µM
TGI (MDA-MB-231 breast): > 100 µM
TGI (A549 NSCLC): > 100 µM
TGI (SW-620 colon): > 100 µM
TGI (M14 melanoma): > 100 µM
TGI (PC-3 prostate): > 100 µM
TGI (ACHN renal): > 100 µM
TGI (BT-549 breast): > 100 µM
TGI (HS 578T breast): > 100 µM
TGI (OVCAR-3 ovarian): 64.8 µM

CCCCc1ccc(N2C(=O)c3cc([N+](=O)[O-])cnc3S2(=O)=O)cc1
TGI (U251 CNS): > 100 µM
TGI (A498 renal): > 100 µM
TGI (EKVX NSCLC): > 100 µM
TGI (UO-31 renal): > 100 µM
TGI (SR leukemia): > 100 µM
TGI (HCT-15 colon): > 100 µM
TGI (SN12C renal): > 100 µM
TGI (SK-MEL-28 melanoma): > 100 µM
TGI (TK-10 renal): > 100 µM
TGI (SF-295 CNS): > 100 µM
TGI (MALME-3M melanoma): > 100 µM
TGI (MDA-MB-435): > 100 µM
TGI (NCI-H226 lung): > 100 µM
TGI (HOP-92 NSCLC): 8.03 µM
TGI (COLO 205 colon): > 100 µM
TGI (SNB-19 CNS): > 100 µM
TGI (HCT-116 colon): > 100 µM
TGI (UACC-257 melanoma): > 100 µM
TGI (MOLT-4 leukemia): > 100 µM
TGI (SF-268 CNS): > 100 µM
TGI (MDA-N): > 100 µM
TGI (SF-539 CNS): > 100 µM
TGI (HOP-62 NSCLC): > 100 µM
TGI (SK-OV-3 ovarian): > 100 µM
TGI (T-47D breast): > 100 µM
TGI (OVCAR-4 ovarian): > 100 µM
TGI (UACC-62 melanoma): > 100 µM
TGI (NCI/ADR-RES ovarian): > 100 µM
TGI (OVCAR-5 ovarian): > 100 µM
TGI (786-0 renal): > 100 µM
TGI (KM12 colon): > 100 µM
TGI (HCC-2998 colon): > 100 µM
TGI (CAKI-1 renal): > 100 µM
TGI (MCF7 breast): > 100 µM
TGI (NCI-H23 lung): > 100 µM
TGI (SK-MEL-2 melanoma): 59 µM
TGI (K-562 leukemia): > 100 µM
TGI (IGROV1 ovarian): > 100 µM
TGI (SK-MEL-5 melanoma): > 100 µM
TGI (NCI-H460 lung): > 100 µM
TGI (SNB-75 CNS): > 100 µM
TGI (HT29 colon): > 100 µM
TGI (OVCAR-8 ovarian): > 100 µM
TGI (MDA-MB-231 breast): > 100 µM
TGI (A549 NSCLC): > 100 µM
TGI (SW-620 colon): > 100 µM
TGI (M14 melanoma): > 100 µM
TGI (PC-3 prostate): > 100 µM
TGI (RPMI-8226 leukemia): > 100 µM
TGI (ACHN renal): > 100 µM
TGI (LOX IMVI melanoma): > 100 µM
TGI (BT-549 breast): > 100 µM
TGI (HS 578T breast): > 100 µM
TGI (OVCAR-3 ovarian): > 100 µM

COc1ccc(CCCNC(=O)Cc2ccccc2CO)cc1OC
TGI (U251 CNS): > 100 µM
TGI (A498 renal): > 100 µM
TGI (EKVX NSCLC): > 100 µM
TGI (UO-31 renal): > 100 µM
TGI (SR leukemia): > 100 µM
TGI (HCT-15 colon): > 100 µM
TGI (SN12C renal): > 100 µM
TGI (SK-MEL-28 melanoma): > 100 µM
TGI (TK-10 renal): > 100 µM
TGI (MALME-3M melanoma): > 100 µM
TGI (MDA-MB-435): > 100 µM
TGI (NCI-H226 lung): > 100 µM
TGI (HOP-92 NSCLC): > 100 µM
TGI (COLO 205 colon): > 100 µM
TGI (SNB-19 CNS): > 100 µM
TGI (HCT-116 colon): > 100 µM
TGI (UACC-257 melanoma): > 100 µM
TGI (MOLT-4 leukemia): > 100 µM
TGI (MDA-N): > 100 µM
TGI (HOP-62 NSCLC): > 100 µM
TGI (T-47D breast): > 100 µM
TGI (OVCAR-4 ovarian): > 100 µM
TGI (HL-60(TB) leukemia): > 100 µM
TGI (UACC-62 melanoma): > 100 µM
TGI (NCI/ADR-RES ovarian): > 100 µM
TGI (OVCAR-5 ovarian): > 100 µM
TGI (786-0 renal): > 100 µM
TGI (KM12 colon): > 100 µM
TGI (HCC-2998 colon): > 100 µM
TGI (CAKI-1 renal): > 100 µM
TGI (NCI-H23 lung): > 100 µM
TGI (SK-MEL-2 melanoma): > 100 µM
TGI (K-562 leukemia): > 100 µM
TGI (IGROV1 ovarian): > 100 µM
TGI (SK-MEL-5 melanoma): > 100 µM
TGI (NCI-H460 lung): > 100 µM
TGI (SNB-75 CNS): > 100 µM
TGI (HT29 colon): > 100 µM
TGI (OVCAR-8 ovarian): > 100 µM
TGI (CCRF-CEM leukemia): > 100 µM
TGI (MDA-MB-231 breast): > 100 µM
TGI (A549 NSCLC): > 100 µM
TGI (SW-620 colon): > 100 µM
TGI (M14 melanoma): > 100 µM
TGI (PC-3 prostate): > 100 µM
TGI (ACHN renal): > 100 µM
TGI (LOX IMVI melanoma): > 100 µM
TGI (BT-549 breast): > 100 µM
TGI (HS 578T breast): > 100 µM
TGI (DU-145 prostate): > 100 µM
TGI (OVCAR-3 ovarian): > 100 µM

Reference: PubChem BioAssay (NCI)
